Each block holds one compound with its values, some of them ahead of it. Calls of active or inactive are those of the source. The calls are words filed in the database; no cut-off is given here.
How the values were obtained:
[1] = molecular target: Metabotropic glutamate receptor 1 (Rattus norvegicus, UniProt P23385); assay: Agonist activity at rat mGluR1 receptor expressed in HEK293 cells by IP-1 HTRF assay; format: functional, cell-based
Rattus norvegicus [2] = organism: Rattus norvegicus; assay: Selectivity ratio of EC50 for agonist activity at rat mGluR8 receptor expressed in HEK293 cells to EC50 for agonist activity at rat mGluR2 receptor expressed in HEK293 cells; format: cell-based
[3] = molecular target: Metabotropic glutamate receptor 3 (Rattus norvegicus) (UniProt P31422); assay: Antagonist activity at rat mGluR3 receptor expressed in HEK293 cells by IP-1 HTRF assay; format: functional, cell-based
Rattus norvegicus [4] = organism: Rattus norvegicus; assay: Selectivity ratio of EC50 for agonist activity at rat mGluR3 receptor expressed in HEK293 cells to EC50 for agonist activity at rat mGluR2 receptor expressed in HEK293 cells; format: cell-based
[5] = molecular target: Metabotropic glutamate receptor 7 (Rattus norvegicus) (UniProt P35400); assay: Antagonist activity at rat mGluR7 receptor expressed in HEK293 cells by IP-1 HTRF assay; format: functional, cell-based
[6] = molecular target: Metabotropic glutamate receptor 5 (Rattus norvegicus, UniProt P31424); assay: Agonist activity at rat mGluR5 receptor expressed in HEK293 cells by IP-1 HTRF assay; format: functional, cell-based
[7] = molecular target: Metabotropic glutamate receptor 7 (Rattus norvegicus) (UniProt P35400); assay: Agonist activity at rat mGluR7 receptor expressed in HEK293 cells at 30 uM by IP-1 HTRF assay; format: functional, cell-based
Rattus norvegicus [8] = organism: Rattus norvegicus; assay: Selectivity ratio of EC50 for agonist activity at rat mGluR5 receptor expressed in HEK293 cells to EC50 for agonist activity at rat mGluR2 receptor expressed in HEK293 cells; format: cell-based
[9] = molecular target: Metabotropic glutamate receptor 2 (Rattus norvegicus) (UniProt P31421); assay: Antagonist activity at rat mGluR2 receptor expressed in HEK293 cells by IP-1 HTRF assay; format: functional, cell-based
Chain of Metabotropic glutamate receptor 2 (Rattus norvegicus) (P31421 19-872 limits assumed): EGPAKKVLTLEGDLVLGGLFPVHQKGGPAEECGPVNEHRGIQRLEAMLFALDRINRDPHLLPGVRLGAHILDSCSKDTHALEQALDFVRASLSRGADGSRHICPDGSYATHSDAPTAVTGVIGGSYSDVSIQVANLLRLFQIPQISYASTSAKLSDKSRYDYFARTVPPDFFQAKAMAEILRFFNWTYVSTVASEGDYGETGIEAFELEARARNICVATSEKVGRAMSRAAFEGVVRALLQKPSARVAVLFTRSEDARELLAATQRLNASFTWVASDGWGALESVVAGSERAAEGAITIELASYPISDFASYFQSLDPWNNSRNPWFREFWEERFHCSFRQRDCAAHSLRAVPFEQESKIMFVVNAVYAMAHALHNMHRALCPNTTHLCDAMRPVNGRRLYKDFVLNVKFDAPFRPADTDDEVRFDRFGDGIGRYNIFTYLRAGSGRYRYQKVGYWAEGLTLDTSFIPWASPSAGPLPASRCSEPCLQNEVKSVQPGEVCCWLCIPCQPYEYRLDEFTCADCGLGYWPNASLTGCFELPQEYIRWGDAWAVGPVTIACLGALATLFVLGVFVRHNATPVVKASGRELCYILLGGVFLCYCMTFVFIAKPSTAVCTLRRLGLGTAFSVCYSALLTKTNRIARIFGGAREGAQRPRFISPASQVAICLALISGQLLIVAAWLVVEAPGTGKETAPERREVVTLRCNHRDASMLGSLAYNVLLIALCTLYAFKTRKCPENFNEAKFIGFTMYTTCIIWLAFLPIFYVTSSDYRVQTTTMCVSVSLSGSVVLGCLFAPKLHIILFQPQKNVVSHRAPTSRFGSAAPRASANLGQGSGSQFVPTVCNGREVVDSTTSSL

Rattus norvegicus [10] = organism: Rattus norvegicus; assay: Selectivity ratio of EC50 for agonist activity at rat mGluR4 receptor expressed in HEK293 cells to EC50 for agonist activity at rat mGluR2 receptor expressed in HEK293 cells; format: cell-based
[11] = molecular target: Metabotropic glutamate receptor 8 (Rattus norvegicus) (UniProt P70579); assay: Antagonist activity at rat mGluR8 receptor expressed in HEK293 cells by IP-1 HTRF assay; format: functional, cell-based
Chain of Metabotropic glutamate receptor 8 (Rattus norvegicus) (P70579 whole entry): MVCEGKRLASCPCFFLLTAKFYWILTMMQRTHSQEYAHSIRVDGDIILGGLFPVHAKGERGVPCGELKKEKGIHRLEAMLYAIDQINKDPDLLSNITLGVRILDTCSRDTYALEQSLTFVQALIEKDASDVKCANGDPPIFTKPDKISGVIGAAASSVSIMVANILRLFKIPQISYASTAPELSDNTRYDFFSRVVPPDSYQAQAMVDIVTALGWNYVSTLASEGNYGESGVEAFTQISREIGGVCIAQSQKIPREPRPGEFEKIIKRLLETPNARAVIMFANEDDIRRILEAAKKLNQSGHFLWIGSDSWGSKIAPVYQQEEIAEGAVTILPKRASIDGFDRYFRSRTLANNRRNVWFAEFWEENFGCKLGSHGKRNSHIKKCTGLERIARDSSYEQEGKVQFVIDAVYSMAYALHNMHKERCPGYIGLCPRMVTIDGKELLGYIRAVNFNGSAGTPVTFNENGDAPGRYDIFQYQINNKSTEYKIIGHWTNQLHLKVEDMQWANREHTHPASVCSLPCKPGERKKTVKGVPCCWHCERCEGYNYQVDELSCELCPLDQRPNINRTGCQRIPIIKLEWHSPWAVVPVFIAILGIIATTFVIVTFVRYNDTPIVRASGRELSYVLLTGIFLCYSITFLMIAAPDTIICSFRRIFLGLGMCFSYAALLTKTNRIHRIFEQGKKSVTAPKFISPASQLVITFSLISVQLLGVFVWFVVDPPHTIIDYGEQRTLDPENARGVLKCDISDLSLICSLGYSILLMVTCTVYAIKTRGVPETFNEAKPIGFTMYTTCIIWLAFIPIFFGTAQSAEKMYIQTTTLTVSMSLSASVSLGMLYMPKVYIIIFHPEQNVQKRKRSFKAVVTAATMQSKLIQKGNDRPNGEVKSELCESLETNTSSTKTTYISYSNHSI

Rattus norvegicus [12] = organism: Rattus norvegicus; assay: Selectivity ratio of EC50 for agonist activity at rat mGluR6 receptor expressed in HEK293 cells to EC50 for agonist activity at rat mGluR2 receptor expressed in HEK293 cells; format: cell-based
[13] = molecular target: Metabotropic glutamate receptor 4 (Rattus norvegicus) (UniProt P31423); assay: Agonist activity at rat mGluR4 receptor expressed in HEK293 cells at 30 uM by IP-1 HTRF assay; format: functional, cell-based
Chain of Metabotropic glutamate receptor 4 (Rattus norvegicus) (P31423 whole entry): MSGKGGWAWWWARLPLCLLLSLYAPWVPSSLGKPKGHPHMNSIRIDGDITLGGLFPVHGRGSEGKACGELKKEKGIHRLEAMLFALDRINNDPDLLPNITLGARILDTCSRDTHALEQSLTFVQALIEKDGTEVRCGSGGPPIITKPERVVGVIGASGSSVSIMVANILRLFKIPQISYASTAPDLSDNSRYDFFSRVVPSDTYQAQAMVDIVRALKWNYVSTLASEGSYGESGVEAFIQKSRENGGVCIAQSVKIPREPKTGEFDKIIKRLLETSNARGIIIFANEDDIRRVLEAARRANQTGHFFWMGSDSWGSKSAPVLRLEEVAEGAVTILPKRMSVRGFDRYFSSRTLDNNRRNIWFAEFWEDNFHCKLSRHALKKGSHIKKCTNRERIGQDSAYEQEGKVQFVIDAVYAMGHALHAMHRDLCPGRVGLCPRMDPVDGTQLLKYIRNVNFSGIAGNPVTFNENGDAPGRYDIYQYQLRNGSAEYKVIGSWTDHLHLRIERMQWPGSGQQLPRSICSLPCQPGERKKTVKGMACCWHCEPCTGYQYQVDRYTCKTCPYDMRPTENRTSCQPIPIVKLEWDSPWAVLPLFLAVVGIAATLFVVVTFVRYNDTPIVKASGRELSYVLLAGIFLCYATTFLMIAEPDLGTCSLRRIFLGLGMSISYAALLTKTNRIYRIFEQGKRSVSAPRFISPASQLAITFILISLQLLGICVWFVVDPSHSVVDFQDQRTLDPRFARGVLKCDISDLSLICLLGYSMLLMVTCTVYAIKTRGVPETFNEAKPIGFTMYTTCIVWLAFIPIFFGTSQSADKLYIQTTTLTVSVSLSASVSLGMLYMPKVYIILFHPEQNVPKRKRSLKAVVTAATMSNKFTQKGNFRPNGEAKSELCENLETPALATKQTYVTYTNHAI

Rattus norvegicus [14] = organism: Rattus norvegicus; assay: Selectivity ratio of EC50 for agonist activity at rat mGluR1 receptor expressed in HEK293 cells to EC50 for agonist activity at rat mGluR2 receptor expressed in HEK293 cells; format: cell-based
[15] = molecular target: Metabotropic glutamate receptor 6 (Rattus norvegicus, UniProt P35349); assay: Agonist activity at rat mGluR6 receptor expressed in HEK293 cells by IP-1 HTRF assay; format: functional, cell-based
Chain of Metabotropic glutamate receptor 6 (P35349 whole entry): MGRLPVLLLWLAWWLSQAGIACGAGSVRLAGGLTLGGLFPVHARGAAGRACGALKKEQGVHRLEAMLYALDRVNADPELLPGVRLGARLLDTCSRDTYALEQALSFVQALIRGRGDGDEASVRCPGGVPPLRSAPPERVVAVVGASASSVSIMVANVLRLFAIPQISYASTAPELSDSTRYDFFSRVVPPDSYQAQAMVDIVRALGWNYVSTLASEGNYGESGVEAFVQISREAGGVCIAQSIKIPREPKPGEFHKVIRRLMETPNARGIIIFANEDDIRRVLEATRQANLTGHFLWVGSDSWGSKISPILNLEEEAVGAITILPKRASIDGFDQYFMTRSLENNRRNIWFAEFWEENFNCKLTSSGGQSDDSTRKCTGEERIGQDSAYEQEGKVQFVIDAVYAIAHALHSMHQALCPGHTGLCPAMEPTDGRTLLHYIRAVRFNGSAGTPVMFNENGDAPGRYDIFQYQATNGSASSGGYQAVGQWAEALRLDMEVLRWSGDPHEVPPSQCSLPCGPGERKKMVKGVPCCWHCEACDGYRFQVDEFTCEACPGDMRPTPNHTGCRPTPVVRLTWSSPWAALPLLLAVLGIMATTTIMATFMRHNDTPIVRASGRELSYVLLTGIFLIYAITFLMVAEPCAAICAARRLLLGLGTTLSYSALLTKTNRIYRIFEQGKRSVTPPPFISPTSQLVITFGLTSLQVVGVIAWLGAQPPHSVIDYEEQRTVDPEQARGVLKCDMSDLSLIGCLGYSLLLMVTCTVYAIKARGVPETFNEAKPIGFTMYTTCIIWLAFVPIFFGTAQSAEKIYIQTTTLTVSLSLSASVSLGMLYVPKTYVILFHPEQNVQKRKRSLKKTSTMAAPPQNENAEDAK

[16] = molecular target: Metabotropic glutamate receptor 2 (Rattus norvegicus, UniProt P31421); assay: Agonist activity at rat mGluR2 receptor expressed in HEK293 cells by IP-1 HTRF assay; format: functional, cell-based; conditions: read-out: EC50
[17] = molecular target: Metabotropic glutamate receptor 6 (Rattus norvegicus) (UniProt P35349); assay: Antagonist activity at rat mGluR6 receptor expressed in HEK293 cells by IP-1 HTRF assay; format: functional, cell-based
Chain of Metabotropic glutamate receptor 6 (Rattus norvegicus) (P35349 whole entry): as above

[18] = molecular target: Metabotropic glutamate receptor 1 (Rattus norvegicus) (UniProt P23385); assay: Antagonist activity at rat mGluR1 receptor expressed in HEK293 cells by IP-1 HTRF assay; format: functional, cell-based
Chain of Metabotropic glutamate receptor 1 (Rattus norvegicus) (P23385 19-1199 limits assumed): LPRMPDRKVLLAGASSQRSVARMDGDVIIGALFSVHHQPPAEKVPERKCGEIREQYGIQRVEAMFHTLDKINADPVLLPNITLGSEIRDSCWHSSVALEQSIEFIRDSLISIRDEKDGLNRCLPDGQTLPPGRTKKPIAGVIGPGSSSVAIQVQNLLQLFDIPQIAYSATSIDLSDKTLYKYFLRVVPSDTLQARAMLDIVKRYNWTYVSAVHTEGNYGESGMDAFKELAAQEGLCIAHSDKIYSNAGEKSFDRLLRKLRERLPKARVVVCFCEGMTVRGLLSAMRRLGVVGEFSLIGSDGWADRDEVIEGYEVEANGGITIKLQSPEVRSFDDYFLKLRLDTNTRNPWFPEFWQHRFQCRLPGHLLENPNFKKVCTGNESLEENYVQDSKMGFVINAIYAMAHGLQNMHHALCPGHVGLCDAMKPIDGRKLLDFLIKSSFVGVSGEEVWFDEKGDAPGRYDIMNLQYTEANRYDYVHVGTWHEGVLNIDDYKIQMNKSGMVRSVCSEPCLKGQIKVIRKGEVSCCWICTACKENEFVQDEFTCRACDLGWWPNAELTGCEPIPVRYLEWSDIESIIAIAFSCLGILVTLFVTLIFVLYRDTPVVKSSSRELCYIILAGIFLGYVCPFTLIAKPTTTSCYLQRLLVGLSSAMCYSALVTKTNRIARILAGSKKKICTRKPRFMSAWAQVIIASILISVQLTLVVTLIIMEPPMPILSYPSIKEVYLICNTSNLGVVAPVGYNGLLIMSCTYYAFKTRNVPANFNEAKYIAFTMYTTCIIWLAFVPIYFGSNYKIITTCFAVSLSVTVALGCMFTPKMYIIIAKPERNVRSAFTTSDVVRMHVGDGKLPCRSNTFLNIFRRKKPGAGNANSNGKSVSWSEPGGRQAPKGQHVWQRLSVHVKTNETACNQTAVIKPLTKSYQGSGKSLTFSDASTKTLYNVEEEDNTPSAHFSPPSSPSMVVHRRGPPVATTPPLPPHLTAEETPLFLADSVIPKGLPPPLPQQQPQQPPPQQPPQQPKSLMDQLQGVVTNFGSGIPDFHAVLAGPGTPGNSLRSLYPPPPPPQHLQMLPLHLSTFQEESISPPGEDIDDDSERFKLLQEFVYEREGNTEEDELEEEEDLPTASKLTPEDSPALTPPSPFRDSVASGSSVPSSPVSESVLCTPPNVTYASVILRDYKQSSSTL

[19] = molecular target: Metabotropic glutamate receptor 5 (Rattus norvegicus) (UniProt P31424); assay: Antagonist activity at rat mGluR5 receptor expressed in HEK293 cells by IP-1 HTRF assay; format: functional, cell-based
[20] = molecular target: Metabotropic glutamate receptor 8 (Rattus norvegicus) (UniProt P70579); assay: Agonist activity at rat mGluR8 receptor expressed in HEK293 cells at 30 uM by IP-1 HTRF assay; format: functional, cell-based
[21] = molecular target: Metabotropic glutamate receptor 3 (Rattus norvegicus, UniProt P31422); assay: Agonist activity at rat mGluR3 receptor expressed in HEK293 cells by IP-1 HTRF assay; format: functional, cell-based
[22] = molecular target: Metabotropic glutamate receptor 4 (Rattus norvegicus) (UniProt P31423); assay: Antagonist activity at rat mGluR4 receptor expressed in HEK293 cells by IP-1 HTRF assay; format: functional, cell-based
Rattus norvegicus [23] = organism: Rattus norvegicus; assay: Selectivity ratio of EC50 for agonist activity at rat mGluR7 receptor expressed in HEK293 cells to EC50 for agonist activity at rat mGluR2 receptor expressed in HEK293 cells; format: cell-based
[24] = molecular target: Metabotropic glutamate receptor 2 (Homo sapiens, UniProt Q14416); assay: Agonist activity at mGluR2 receptor (unknown origin); format: functional
[25] = molecular target: Metabotropic glutamate receptor 3 (Rattus norvegicus) (UniProt P31422); assay: Agonist activity at rat mGluR3 receptor expressed in HEK293 cells at 3 uM by IP-1 HTRF assay; format: functional, cell-based; conditions: filed as agonist
[26] = molecular target: Metabotropic glutamate receptor 2 (Rattus norvegicus) (UniProt P31421); assay: Agonist activity at rat mGluR2 receptor expressed in HEK293 cells at 100 uM by IP-1 HTRF assay; format: functional, cell-based
[27] = molecular target: Metabotropic glutamate receptor 7 (Rattus norvegicus) (UniProt P35400); assay: Agonist activity at rat mGluR7 receptor expressed in HEK293 cells at 100 uM by IP-1 HTRF assay; format: functional, cell-based
[28] = molecular target: Metabotropic glutamate receptor 4 (Rattus norvegicus) (UniProt P31423); assay: Agonist activity at rat mGluR4 receptor expressed in HEK293 cells at 100 uM by IP-1 HTRF assay; format: functional, cell-based
[29] = molecular target: Metabotropic glutamate receptor 5 (Rattus norvegicus) (UniProt P31424); assay: Agonist activity at rat mGluR5 receptor expressed in HEK293 cells at 100 uM by IP-1 HTRF assay; format: functional, cell-based
[30] = molecular target: Metabotropic glutamate receptor 6 (Rattus norvegicus) (UniProt P35349); assay: Agonist activity at rat mGluR6 receptor expressed in HEK293 cells at 100 uM by IP-1 HTRF assay; format: functional, cell-based
[31] = molecular target: Metabotropic glutamate receptor 1 (Rattus norvegicus) (UniProt P23385); assay: Agonist activity at rat mGluR1 receptor expressed in HEK293 cells at 100 uM by IP-1 HTRF assay; format: functional, cell-based
[32] = molecular target: Metabotropic glutamate receptor 3 (Rattus norvegicus) (UniProt P31422); assay: Agonist activity at rat mGluR3 receptor expressed in HEK293 cells at 100 uM by IP-1 HTRF assay; format: functional, cell-based
[33] = molecular target: Metabotropic glutamate receptor 8 (Rattus norvegicus) (UniProt P70579); assay: Agonist activity at rat mGluR8 receptor expressed in HEK293 cells at 100 uM by IP-1 HTRF assay; format: functional, cell-based

EC50 ([1]; read-out: EC50): 5210 nM | EC50 ([1]; read-out: pEC50 (converted)): 5130 nM | inhibition [3]: inactive | inhibition [5]: inactive | EC50 ([6]; read-out: EC50): 10600 nM | EC50 ([6]; read-out: pEC50 (converted)): 11200 nM | Activity [7]: inactive | inhibition [9]: inactive | inhibition [11]: inactive | Activity [13]: inactive | EC50 ([15]; read-out: EC50): 2180 nM | EC50 ([15]; read-out: pEC50 (converted)): 2140 nM | EC50 [16]: 82 nM | inhibition [17]: inactive | inhibition [18]: inactive | inhibition [19]: inactive | Activity [20]: inactive | EC50 [21]: 1220 nM | inhibition [22]: inactive
SMILES: C[C@@]1(C(=O)O)C[C@H]1[C@H](N)C(=O)O
Ratio EC50 (Rattus norvegicus [2]): > 25 | Ratio EC50 (Rattus norvegicus [4]): 15 | Ratio EC50 (Rattus norvegicus [8]): > 60 | Ratio EC50 (Rattus norvegicus [10]): > 25 | Ratio EC50 (Rattus norvegicus [12]): > 25 | Ratio EC50 (Rattus norvegicus [14]): > 60 | Ratio EC50 (Rattus norvegicus [23]): > 25

EC50 [24]: 300 nM
SMILES: N[C@H](C(=O)O)[C@@H]1C[C@H]1C(=O)O

EC50 [16]: 0.6 nM | Activity [25]: 100% | EC50 [21]: 9 nM
SMILES: N[C@@]1(C(=O)O)CO[C@H]2[C@H](C(=O)O)[C@H]21 [LY-379268]

inhibition [3]: inactive | Activity [26]: inactive | Activity [27]: inactive | Activity [28]: inactive | inhibition [5]: inactive | Activity [29]: inactive | inhibition [9]: inactive | inhibition [11]: inactive | Activity [30]: inactive | Activity [31]: inactive | inhibition [17]: inactive | Activity [32]: inactive | inhibition [18]: inactive | Activity [33]: inactive | inhibition [19]: inactive | inhibition [22]: inactive
SMILES: N[C@@H](C[C@H]1C[C@@H]1C(=O)O)C(=O)O
